System: 439559-082-T-J2-PDC spheroid viability
Test: Anticancer human tumor 439559-082-T-J2-PDC patient-derived colon adenocarcinoma cell line growth inhibition [POLQ]
Conditions: spheroids with HUVEC and MSC; for IC50: curve of first compound; for viability, T/C: stronger effect = lower value
Method in brief: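 Complex spheroid viability model combining PDC tumour cells with endothelial (HUVEC) and MSC stromal cells. Novobiocin, ART-558 or RP6685 were tested singly and in combination with standard and investigational anticancer drugs. Each was titrated in half-log steps from near clinical Cmax, or from 10 microM where Cmax was unknown.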

[1] = second compound 0.0316 µM, first compound 0.0316 µM
[2] = second compound 0.0316 µM, first compound 0.1 µM
[3] = second compound 0.0316 µM, first compound 0.316 µM
[4] = second compound 0.0316 µM, first compound 1 µM
[5] = second compound 0.0316 µM, first compound 3.16 µM
[6] = second compound 0.0316 µM, first compound 10 µM
[7] = second compound 0.1 µM, first compound 0.0316 µM
[8] = second compound 0.1 µM, first compound 0.1 µM
[9] = second compound 0.1 µM, first compound 0.316 µM
[10] = second compound 0.1 µM, first compound 1 µM
[11] = second compound 0.1 µM, first compound 3.16 µM
[12] = second compound 0.1 µM, first compound 10 µM
[13] = second compound 0.316 µM, first compound 0.0316 µM
[14] = second compound 0.316 µM, first compound 0.1 µM
[15] = second compound 0.316 µM, first compound 0.316 µM
[16] = second compound 0.316 µM, first compound 1 µM
[17] = second compound 0.316 µM, first compound 3.16 µM
[18] = second compound 0.316 µM, first compound 10 µM
[19] = second compound 1 µM, first compound 0.0316 µM
[20] = second compound 1 µM, first compound 0.1 µM
[21] = second compound 1 µM, first compound 0.316 µM
[22] = second compound 1 µM, first compound 1 µM
[23] = second compound 1 µM, first compound 3.16 µM
[24] = second compound 1 µM, first compound 10 µM
[25] = second compound 3.16 µM, first compound 0.0316 µM
[26] = second compound 3.16 µM, first compound 0.1 µM
[27] = second compound 3.16 µM, first compound 0.316 µM
[28] = second compound 3.16 µM, first compound 1 µM
[29] = second compound 3.16 µM, first compound 3.16 µM
[30] = second compound 3.16 µM, first compound 10 µM
[31] = second compound 10 µM, first compound 0.0316 µM
[32] = second compound 10 µM, first compound 0.1 µM
[33] = second compound 10 µM, first compound 0.316 µM
[34] = second compound 10 µM, first compound 1 µM
[35] = second compound 10 µM, first compound 3.16 µM
[36] = second compound 10 µM, first compound 10 µM
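Note: spheroids exposed to compounds for seven days before readout.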
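Throughout, for viability, T/C: 100% = DMSO vehicle control viability.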

Which results are given for `CCCS(=O)(=O)Nc1ccc(F)c(C(=O)c2c[nH]c3ncc(-c4ccc(Cl)cc4)cc23)c1F` + Nc1ccc(C#CCN(C(=O)Cc2ncc(C(F)(F)F)cc2C(F)(F)F)c2ccc(F)cc2)nn1?
IC50 (second compound 0.0316 µM): 7.87 µM; IC50 (second compound 0.1 µM): 7.94 µM; IC50 (second compound 0.316 µM): 8.88 µM; IC50 (second compound 1 µM): 8.43 µM; IC50 (second compound 3.16 µM): 8.5 µM; IC50 (second compound 10 µM): 8.29 µM; viability, T/C [1]: 66%; viability, T/C [2]: 72.5%; viability, T/C [3]: 94.9%; viability, T/C [4]: 90.5%; viability, T/C [5]: 78.2%; viability, T/C [6]: 42.5%; viability, T/C [7]: 79.8%; viability, T/C [8]: 64.4%; viability, T/C [9]: 92.4%; viability, T/C [10]: 98.2%; viability, T/C [11]: 82%; viability, T/C [12]: 41.9%; viability, T/C [13]: 65.4%; viability, T/C [14]: 77%; viability, T/C [15]: 93.4%; viability, T/C [16]: 103%; viability, T/C [17]: 88.7%; viability, T/C [18]: 45.9%; viability, T/C [19]: 52.6%; viability, T/C [20]: 68.7%; viability, T/C [21]: 95.9%; viability, T/C [22]: 107%; viability, T/C [23]: 81%; viability, T/C [24]: 44.6%; viability, T/C [25]: 61.6%; viability, T/C [26]: 66.6%; viability, T/C [27]: 103%; viability, T/C [28]: 99.6%; viability, T/C [29]: 91.5%; viability, T/C [30]: 44.3%; viability, T/C [31]: 60.9%; viability, T/C [32]: 69.3%; viability, T/C [33]: 89.4%; viability, T/C [34]: 104%; viability, T/C [35]: 85.6%; viability, T/C [36]: 43.8%

Which IC50 (second compound 0.0316 µM) does the source give for `O=c1[nH]cc(F)c(=O)[nH]1` + Nc1ccc(C#CCN(C(=O)Cc2ncc(C(F)(F)F)cc2C(F)(F)F)c2ccc(F)cc2)nn1 here?
The IC50 was over 10 µM.

And the IC50 (second compound 0.1 µM)?
Its IC50 is over 10 µM.

What about the IC50 (second compound 0.316 µM) of the same compound?
The IC50 was over 10 µM.

And the IC50 (second compound 1 µM)?
Its IC50 is over 10 µM.

And the IC50 (second compound 3.16 µM)?
The IC50 was over 10 µM.

What about the IC50 (second compound 10 µM) of the same compound?
Its IC50 is over 10 µM.

And the viability, T/C [1]?
The viability, T/C was 105%.

And the viability, T/C [2]?
The viability, T/C was 112%.

What about the viability, T/C [3] of the same compound?
Its viability, T/C is 101%.

What about the viability, T/C [4] of the same compound?
Its viability, T/C is 98%.

What about the viability, T/C [5] of the same compound?
Its viability, T/C is 90.2%.

What about the viability, T/C [6] of the same compound?
The viability, T/C was 87.5%.

And the viability, T/C [7]?
Its viability, T/C is 115%.

What about the viability, T/C [8] of the same compound?
Its viability, T/C is 97.4%.

And the viability, T/C [9]?
The viability, T/C was 91.4%.

What about the viability, T/C [10] of the same compound?
The viability, T/C was 92%.

What about the viability, T/C [11] of the same compound?
The viability, T/C was 86.5%.

And the viability, T/C [12]?
The viability, T/C was 82.5%.

What about the viability, T/C [13] of the same compound?
The viability, T/C was 116%.

And the viability, T/C [14]?
Its viability, T/C is 104%.

What about the viability, T/C [15] of the same compound?
Its viability, T/C is 105%.

What about the viability, T/C [16] of the same compound?
The viability, T/C was 95.9%.

What about the viability, T/C [17] of the same compound?
Its viability, T/C is 83.1%.

And the viability, T/C [18]?
The viability, T/C was 85.3%.

And the viability, T/C [19]?
The viability, T/C was 104%.

And the viability, T/C [20]?
Its viability, T/C is 94.8%.

And the viability, T/C [21]?
Its viability, T/C is 101%.

What about the viability, T/C [22] of the same compound?
Its viability, T/C is 81.9%.

And the viability, T/C [23]?
The viability, T/C was 84.5%.

And the viability, T/C [24]?
Its viability, T/C is 81.4%.

And the viability, T/C [25]?
Its viability, T/C is 103%.

And the viability, T/C [26]?
The viability, T/C was 99.9%.

What about the viability, T/C [27] of the same compound?
Its viability, T/C is 84.2%.

And the viability, T/C [28]?
The viability, T/C was 85.5%.

And the viability, T/C [29]?
Its viability, T/C is 86.6%.

And the viability, T/C [30]?
The viability, T/C was 80.5%.

And the viability, T/C [31]?
The viability, T/C was 109%.

What about the viability, T/C [32] of the same compound?
Its viability, T/C is 91.3%.

What about the viability, T/C [33] of the same compound?
Its viability, T/C is 102%.

What about the viability, T/C [34] of the same compound?
Its viability, T/C is 83.4%.

What about the viability, T/C [35] of the same compound?
The viability, T/C was 87.9%.

What about the viability, T/C [36] of the same compound?
The viability, T/C was 78.7%.

— PubChem BioAssay AID1963841 (Molecular Pharmacology Branch, DTP, NCI, 2024)
